Experimental data reported in patent US8940497B2, “Enzyme regulating ether lipid signaling pathways” (The Scripps Research Institute, priority 2006, dated 2015).

Assays:
Assay type in all cases: cell-based, human
shKIAA1363 cells = experiment: Cell migration assay (Transwell) with shKIAA1363 cells; settings: concentrations up to 1 μM, 18 h
Procedure: Migration assays were performed in Transwell chambers with […] pore-sized membranes coated with 10 μg/ml collagen overnight at 4° C. (Corning). Twenty-four hours before the start of the migration assay, cancer cell lines were plated at concentration of 2.25×10^6 cells per 10 cm dish. At the start of the migration assay, cells were harvested by washing two times with PBS and then serum starved in medium containing 0.05% BSA for 4 hours. Serum starved cells were trypsinized, spun at 1400 rpm for 3 minutes, resuspended, and counted. Cells were diluted to a density of 100,000 cells/ml in medium contain 0.05% BSA, and then 250 μl were placed in the upper chamber of the transwells. Either DMSO, alkyl LPA (10 nM), alkyl LPC (10-1000 nM), or MAGE (10-1000 nM) in medium containing 0.05% BSA was added in the lower chamber, and cells were allowed to migrate for 18 h. The filters were then fixed and stained with Diff-Quik (Dade Behring). Cells that had not migrated through the chamber were removed with a cotton ball. The cells which migrated were counted at a magnification of 40× and from each migration chamber 6 fields were independently counted.
The decrease in tumorigenic potential of shKIAA1363 cells was not associated with a change in proliferation potential in vitro (FIG. 11). shKIAA1363 cells were, however, impaired in their in vitro migration capacity compared to control cells (FIG. 9B). […]

SKOV-3 cells = experiment: Targeted LC-MS analysis of lipid levels in inhibitor-treated cells; settings: compared to DMSO controls
Procedure: (§1) The following LC-MS conditions were used for analysis of cancer cell metabolomes. Cell pellets were harvested by scraping, isolated by centrifugation at 1,400×g, and dounce-homogenized in 4 mL of a 2:1:1 mixture of chloroform:methanol:Tris buffer (50 mM Tris*HCl, pH 8.0). Samples that were analyzed by targeted LC-MS were homogenized in the presence of the following synthetic standards: C15:0 MAG (50 pmol), C17:0 LPA (50 pmol), and 13C-C16:0 MAGE (25 pmol). Organic and aqueous layers were separated by centrifugation at 1,260×g for 5 min. The organic layer was then removed, dried under a stream of N2, and re-solubilized in 100 μL of chloroform, of which 30 μL was analyzed by LC-MS. Extraction of LPA was performed by acidifying the remaining aqueous layer to a final concentration of 5% formic acid, followed by the addition of 2 mL of chloroform. The mixture was vortexed, the organic layer removed, concentrated to dryness, and dissolved in 100 μL of chloroform, of which 30 μL was analyzed by LC-MS.
(§2) LC-MS analysis was performed using an Agilent 1100 LC-MSD SL instrument. […] Mobile phase A was composed of a 95:5 ratio of water:methanol and mobile phase B consisted of 2-propanol, methanol, and water in a 60:35:5 ratio. Solvent modifiers such as 0.1% formic acid and 0.1% ammonium hydroxide were used to assist ion formation as well as improve the LC resolution in both positive and negative ionization modes respectively. The flow rate for each run started at 0.1 mL/min for 5 min, to alleviate backpressure associated with injecting chloroform. The gradient started at 0% B and increased linearly to 100% B over the course of 40 min with a flow rate of 0.4 mL/min, followed by an isocratic gradient of 100% B for 7 min before equilibrating for 8 min at 0% B with a flow rate of 0.5 mL/min.
MS analysis was performed with an electrospray ionization (ESI) source. The capillary voltage was set to 3.0 kV and the fragmentor voltage to 100V. The drying gas temperature was 350° C., the drying gas flow rate was 10 L/min, and the nebulizer pressure was 35 psi. Untargeted data was collected using a mass range of 200-1000 Da and exported as common data format (.CDF) files for computational analysis. Differentially expressed metabolites between sample pairs were identified using the XCMS analyte profiling software (http://metlin/download) that aligns mass peaks from two LC-MS traces and quantifies the relative intensities of global metabolites (5). Significant inhibitor-sensitive peak changes were confirmed by manual quantification using the area under the peak normalized to total ion current. Targeted LC-MS measurements were made using selected ion monitoring (SIM). Peaks were quantified by measuring the area under the peak and normalized to an internal standard (C15:0 MAG) or endogenous lipid (palmitic acid). Absolute MAGE levels were estimated by comparison to a 13C-MAGE standard.
Human ovarian cancer cell lines were obtained form the National Cancer Institute's Developmental Therapeutics Program. The melanoma lines C8161 and MUM-2B were obtained form Mary Hendrix. Cells were maintained in RPMI medium 1640 with 10% (v/v) fetal calf serum at 37° C. in a humidified atmosphere of 5% CO2/95% air. At approximately 80% confluency, cells were trypsinized, counted with the aid of a hemocytometer, and 2.5×10^6 cells were plated in 6 cm dishes. 20 h after plating cells were washed twice with PBS and supplemented with serum free RPMI containing 0.5% BSA (Sigma)(BSA-RPMI) with AS115 (0.01-10 μM) or vehicle (DMSO) at 0.1%. After incubation for 4 h the cells were harvested and analyzed by ABPP or LC-MS.
By extension, the m/z 345 and 347 metabolites were interpreted to represent the C18:1 and C18:0 MAGEs, respectively. […] MAGE levels were measured by targeted LC-MS analysis of SKOV-3 cells treated with AS115 (5 μM) or DMSO for 4 h using a 13C-C16:0 MAGE internal standard. Values are represented as pmol/10^6 cells. […]

C8161 melanoma cells = experiment: LC-MS MAGE lipid levels in inhibitor-treated melanoma cells; settings: compared to DMSO controls
Procedure: as §1, §2
(§3) MS analysis was performed with an electrospray ionization (ESI) source. […] Differentially expressed metabolites between sample pairs were identified using the XCMS analyte profiling software (http://metlin/download) that aligns mass peaks from two LC-MS traces and quantifies the relative intensities of global metabolites (5). Significant inhibitor-sensitive peak changes were confirmed by manual quantification using the area under the peak normalized to total ion current. […] Peaks were quantified by measuring the area under the peak and normalized to an internal standard (C15:0 MAG) or endogenous lipid (palmitic acid). […]
(§4) Human ovarian cancer cell lines were obtained form the National Cancer Institute's Developmental Therapeutics Program. […] At approximately 80% confluency, cells were trypsinized, counted with the aid of a hemocytometer, and 2.5×10^6 cells were plated in 6 cm dishes. […] After incubation for 4 h the cells were harvested and analyzed by ABPP or LC-MS. […]

MUM-2B melanoma cells = experiment: as above; settings: compared to DMSO controls
Procedure: as §1, §2, §3, §4

Row | Compound | Effect on cancer cell migration (shKIAA1363 cells) | Levels of MAGE lipids (SKOV-3 cells) | Levels of MAGE lipids (C8161 melanoma cells) | Levels of MAGE lipids (MUM-2B melanoma cells)
1 | monoalkylglycerol ether [MAGE] | Neither MAGE nor alkyl-LPC impacted cancer cell migration |  |  | 
2 | NC(=O)c1cccc(-c2cccc(OC(=O)NC3CCCCC3)c2)c1 [URB597, reference compound] |  | did not affect | did not affect | did not affect
